The results in this text go back to a melting point compilation (Tetko et al.; mined from patent text by program, amines drawn as free bases though some values may be those of a salt).

By melting point is commonly meant the temperature, or range, at which the solid turns liquid. Consider `CCCN(CCC)CCc1ccc(OC)c(C(=O)O)c1OC`, for which the melting point was 174 to 177 °C.

Compound `CCCCCCCCCCCc1ccc(CC(=O)O)cc1` had a melting point of 83 to 84 °C.

Regarding `O=C1C2CC3CC1CC(c1cc(Br)ccc1OCc1ccccc1)(C3)C2`, the melting point lay in the range of 163 to 165 °C.

`CCCCC(=N)NC(=O)Nc1cccc([N+](=O)[O-])c1` gave a melting point of 161 to 163 °C.

Compound `CCOCc1nc2c(N)nc(C)c(C)c2n1Cc1cc(-c2ccc(F)cc2)no1` had a melting point of 246 to 247 °C.

Turning to `Cc1cc([N+](=O)[O-])c(C(=O)OC(C)C)cc1Oc1ccc(OC(F)(F)F)cc1`, the melting point was 47 to 49 °C.

Compound `CCOC(=O)c1ncoc1-c1cc(Cl)nc(Cl)c1` came in with a melting point of 108 to 109 °C.

As for `CC(C)(C)NC1=NCCNC(c2ccccc2)=C1`, the melting point lay in the range of 93 to 97 °C.

As for `Cc1ccc2c(NCc3ccc(NC(=O)C4CCN(Cc5ccccc5)CC4)cc3)nc(Cl)nc2c1`, the melting point came to 212 °C.

Consider `COC(=O)c1cccc(N)n1`, for which the melting point came to 87 °C.

As for `Cc1cc(C)n(-c2nc(Nc3cccc(Cl)c3)c3ccccc3n2)n1`, the melting point was in the range of 259 to 262 °C.

Compound `CC(C)C(S)C(=O)NC1(C(=O)NC(Cc2ccc(-c3ccsc3)nc2)C(=O)O)CCCC1` (stereo unspecified) returned a melting point of 215 to 217 °C.

As to `O=C(O)Cc1ccc(OCc2ccc3ccccc3n2)c(-n2cccc2)c1`, the melting point is 173 °C.

With `C#CC(=O)NCCCCC`, the melting point lay within 59 to 60.2 °C.

For `CCCCCC(CCn1ccnc1)SCc1ccc(Cl)cc1Cl` (stereo unspecified), the melting point lay in the range of 124 to 126 °C.

`O=C(O)Cc1ccc2noc(-c3ccccc3)c2c1` had a melting point of 173 to 174 °C.

In the case of `C=CCC(N)c1cccc(OC)c1` (stereo unspecified), the melting point was found to be 30 °C.

With `CCONC(=O)COc1cccc2c1c(C(=O)C(N)=O)c(CC)n2Cc1ccccc1`, the melting point fell in the range of 176 to 178 °C.

Take `N#Cc1c(O)cc(C(F)(F)F)cc1Cl`: the melting point worked out at 138 °C.

In turn, `Cc1ccc(Sc2c(Cl)c(C(=O)O)c(C(O)=NCCO)c(Cl)c2Sc2ccc(C)cc2)cc1` registered a melting point of 211 to 212 °C.

Regarding `Nn1c(C(F)(F)F)ccc(-c2ccc(Cl)cc2Cl)c1=O`, the melting point is 98 to 100 °C.

In turn, `COc1ccc(C(=O)N2CCCC2=O)cc1O` had a melting point of 123 to 125 °C.

On to `Cn1c(C(F)(F)F)ccc(-c2cc(N)c(Cl)cc2F)c1=O`, for which the melting point was in the range of 155 to 157 °C.

Regarding `COc1cc2c(cc1C)CCN=C2CCc1ccc(Cl)cc1`, the melting point was in the range of 122 to 124 °C.

`C=C(C)c1ccc(C(C)(c2ccc(C(=C)C)cc2)c2ccc(C(=C)C)cc2)cc1` had a melting point of 28 °C.

Turning to `Cc1cn(-c2ccc(NC(=O)c3ccc(Cl)c(C#Cc4ccc(NC5CCC5)nn4)c3)cc2C(F)(F)F)cn1`, the melting point is 153 to 155 °C.

On to `CCOC(=O)c1cccc2c(=O)cc(-c3cccc(OCc4ccc5ccccc5n4)c3)oc12`, for which the melting point was greater than 300 °C.

In turn, `COc1ccc(C=CC(=O)N2CCOCC2)cc1C(F)F` registered a melting point of 119 °C.

The compound `Cc1ccc(-c2nc(COc3ccc(CCCCn4ccnc4)cc3)cs2)s1` had a melting point of 81 to 82 °C.

With `O=C(O)C1CSCCC12OCCO2` (stereo unspecified), the melting point lay within 99 to 101 °C.

In turn, `Cc1nc2c(s1)CCN(C(=O)c1ccc(NC(=O)c3ccccc3-c3ccccc3)cc1)c1ccccc1-2` yielded a melting point of 165 to 168 °C.

`C#CCN1C(=O)c2ccccc2C1O` (stereo unspecified) returned a melting point of 157 to 159 °C.

`O=C(O)c1ccccc1CNC(=O)C1Cc2ccccc2N1S(=O)(=O)c1ccc(-c2cccc(C(F)(F)F)c2)cc1` (stereo unspecified) yielded a melting point of 118 °C.

For the compound `COc1ccc(C(=CC(=O)N2CCOCC2)c2ccc([N+](=O)[O-])cc2)cc1OC`, the melting point was in the range of 149 to 163 °C.

`CCOC(=O)CCn1ccn(C2CCc3ccccc3C2)c1=S` (stereo unspecified) gave a melting point of 71 to 73 °C.

`COc1cc(-c2nc(N(C)CCN(C)C)c3c(C)c(C#N)sc3n2)cc(OC)c1OC` had a melting point of 125 to 127 °C.
